Assay results reported in EP0048613B1, “4-0-Substituted -2-deoxystreptamine aminoglycoside derivatives, their preparation and formulations containing them” (ELI LILLY AND COMPANY, priority 1980, dated 1982).

Tested on: B. subtilis X12
Assay: Bioautography of thin layer chromatography plate
Type: cell-based
Details: bioautography of TLC plate of the reaction mixture against B. subtilis X12
Procedure: Apramycin (54 mg, 0.1 mmol) was dissolved in water (1 ml). Nickel acetate tetrahydrate (100 mg, 0.4 mmol) was added and this solution was diluted with dimethylformamide (5 mi). The mixture was treated with 1-iodo-n-butane (0.115 ml, 1 mmol) and this reaction mixture was stirred at room temperature for 4 days.

Substance | zone of inhibition
2'-N-(n-Butyl)apramycin [Example 6] | a zone of inhibition
2'-N-Allylapramycin [Example 8] | a good zone of inhibition
2'-N-Benzylapramycin [Example 7] | a zone of inhibition
